US20210052741A1, “GENE THERAPY METHODS AND COMPOSITIONS USING AUXOTROPHIC REGULATABLE CELLS” (AUXOLYTIC LTD, priority 2018, published 2021)
Where “and” joins values, the source holds several entries; their conditions need not be identical. Identical values can stand only once.

Experiments:
UMPS edited T cells = assay: TIDE analysis of UMPS InDels in mixed UMPS edited population; assay type: cell-based, human
Description: Sanger sequencing of the UMPS locus was performed using UMPS-O-1 and UMPS-O-2, with the region amplified using PHUSION™ Hot Start Flex 2x Master Mix (New England Biolabs, Inc.). Sanger sequencing traces were analyzed by TIDE analysis (see, Brinkman et al, 2014, Nucleic Acids Res. 42(22):e168), which is hereby incorporated by reference in its entirety) to identify insertions and deletions (InDels) after editing. InDel quantification was performed on the sequences using the TIDE online tool (www.deskgen.com/landing/tide.html) (See, M. Sadelain, N. Engl. J. Med. 365, 1735-7 (2011), which is hereby incorporated by reference in its entirety.
T Cells were electroporated and edited as in Example 2 and allowed to recover for a 4-day period in medium with serum, uridine, and UMP. On day 4, cells were shifted to UMP, uridine, or uracil source media. […]
To confirm the results on the genomic level, genomic DNA was harvested at the end of the experiment and InDels were quantified (FIG. 5D-FIG. 5E). FIG. 5D compares the frequency of InDels in different culture conditions for cells not exposed to 5-FOA.

UMPS knockout T cells [1] = assay: Uracil auxotrophy growth assay after 5-FOA selection; assay type: cell-based, human; details: after 4 days 5-FOA selection, 4 days in supplemented media, without serum
Description: To assay whether or not the cells selected for by 5-FOA treatment were uracil auxotrophs, mock or UMPS targeted T cells were exposed to 5-FOA as shown in Example 4. Following 4 days of 5-FOA selection, the population of cells was split into an uracil containing media (UMP, uridine or both) and an uracil deficient media. A growth assay was subsequently performed by cell counting after following 4 days incubation in test media (Day 8) (FIG. 4A). In all cases, cell growth in the mock targeted cell cultures was negligible and independent of uracil source supplementation—indicating successful killing of non-UMPS targeted cells during the 5-FOA selection step (FIG. 4B-FIG. 4D).

Mock T cells [2] = assay: Growth time course with/without UMP or uridine; assay type: cell-based, human; details: metabolite 250 μg/ml
Description: (§1) Genomic DNA was harvested using QUICKEXTRACT™ DNA Extraction Kit (Epicentre). Cells were counted on an automated cell counter using Trypan blue staining or on a CytoFLEX flow cytometer (Beckman Coulter) with automatic plate reader using COUNTBRIGHT™ beads (ThermoFisher) as a reference for normalizing the values. Alternatively, cells were analyzed after staining with fluorochrome-labelled antibodies (Biolegend) on an ACCURI™ C6 flow cytometer (BD Biosciences), which also measures volumes, or a FACS ARIA™ II SORP cell sorter (BD Biosciences). Data was analyzed using Excel (Microsoft) and FlowJo software (Tree Star).
(§2) T Cells were electroporated and edited as in Example 2 and allowed to recover for a 4-day period in medium with serum, uridine, and UMP. On day 4, cells were shifted to UMP, uridine, or uracil source media.
(§3) To evaluate whether the UMPS knockout leads to differential cell proliferation if cultured without the addition of Uridine or Uridine monophosphate (UMP), the cell counts in culture were followed over time by automatic cell counting with Trypan blue staining. UMPS knockout led to lower cell counts from day 2 after electroporation, compared to cells that were mock electroporated or electroporated using Cas9 targeting a different genomic locus (i.e., CCR5) (FIG. 5B).

CCR5 knockout T cells = assay: Growth time course with/without UMP or uridine; assay type: cell-based, human; details: metabolite 250 μg/ml
Description: as §1, §2, §3

UMPS knockout T cells [3] = assay: Growth time course with/without UMP or uridine; assay type: cell-based, human
Description: as §1, §2, §3

Mock T cells [4] = assay: 5-FOA selection, cell counts after 4 days; assay type: cell-based, human
Description: (§4) 5-FOA selects for uracil auxotrophic cells in other organisms (e.g. Boeke et al. 1984, Mol. Gen. Genet. 197(2):345-6), which is hereby incorporated by reference in its entirety). To investigate the potential utility of 5-FOA for the selection of uracil auxotrophs among human cells, the UMPS gene was targeted in human T cells by Cas9-gRNA complex electroporation followed by recovery (as shown in Example 2) followed by an assay of resistance to 5-FOA treatment (FIG. 3A). Cells were grown in 5-FOA and a variety of combinations of serum and uracil sources for 4 days before cell counting was performed.

UMPS-7 targeted T cells = assay: 5-FOA selection, cell counts after 4 days; assay type: cell-based, human
Description: as §4

[5] = cited from earlier work
[6] = test system: UMPS^KO/KO engineered hES cells; assay: Teratoma formation from engineered hES cells; assay type: in vivo, NSG mice
Description: To determine whether the safety switch can eradicate teratomas that originate from pluripotent cells, iPSCs or ES cells that were genetically modified (or control cells) were transplanted into mice. The cells expressed luciferase for in vivo detection. 1×10^6 UMPS-engineered hESCs were resuspended in a 100 μl of […]® protein mixture (Corning, Inc.) and PBS mixture and injected into the gastrocnemius muscle of the right hind leg of anesthetized NSG mice. The mice were followed up for tumor formation by tumor size measurement and by bioluminescence imaging. After establishment of tumors, whether withdrawal of Uridine triacetate (UTA) led to tumor regression was tested. At the endpoint (tumor sizes above 1.7 cm or impairment of mouse activity, otherwise 24 weeks) tumor was explanted and fixated for histological analysis.
Auxotrophic cell proliferation of the UMPS^KO/KO engineered hES cells in vivo was also analyzed. […] Bone marrow is analyzed at the time that the animal dies or is sacrificed (latest 16 weeks after injection). […] Groups were compared by statistical tests as indicated using Prism 7 (GraphPad).

[7] = test system: UMPS wild-type K562 cells; assay: K562 xenograft model, bioluminescence imaging; assay type: in vivo, NSG mice; details: subcutaneous xenograft, normal or UTA supplemented food
Source text: (§5) For the K562 xenograft assay, 6 to 12 weeks old male NOD SCID gamma mouse (NSG) mice were transplanted with 1×10^6 K562 cells resuspended in […]® protein mixture (Corning, Inc.) 1:1 diluted with PBS under anesthesia. All animals were kept and handled according to institutional guidelines and the experimental protocol was approved by Stanford University's Administrative Panel on Laboratory Animal Care.
(§6) The previously engineered UMPS^KO/KO K562 cell line expressing firefly luciferase (FLuc) was used in a xenograft model in NSG mice. […] Cas9 RNP is targeted to exon 1 of the HBB locus with a guide RNA and a DNA donor template transduced by rAAV6 which carries a FLuc-2A-GFP-polyA cassette under control of the SFFV promoter. FACS analysis was performed four days after targeting of K562 cells to evaluate GFP expression before sorting of the GFP+ population. In a control group administered the AAV only, 1.61% of the cells were GFP+, and […].
(§7) UTA was acquired from Accela ChemBio Inc. and added to make the 8% (w/w) to Teklad mouse food (Envigo) and the food irradiated before use. […]
(§8) UMPS^KO/KO K562 cells or control cells were transplanted subcutaneously and observed weekly with bioluminescence imaging. Luminescence imaging of K562 cells was performed 5 minutes after intraperitoneal (ip) injection of 125 mg/kg D-Luciferin (PerkinElmer) on an IVIS Spectrum imaging system (PerkinElmer). […]

UMPS^KO/KO K562 cells = assay: K562 xenograft model, bioluminescence imaging; assay type: in vivo, NSG mice; details: subcutaneous xenograft, food with 8% UTA vs food without UTA
Source text: as §5, §6, §7, §8

UMPS locus = assay: InDel quantification by ICE and ICE-D in activated T cells; assay type: cell-based, human; details: for ICE InDels (%) / ICE-D InDels (%): Cas9 RNP electroporated into activated T cells, 4 days
Source text: sgRNAs were acquired with chemical modifications from Synthego Corporation. The sgRNAs were complexed with Cas9 protein (IDT) at a molar ration of 2.5:1 (sgRNA:protein) and electroporated into activated T cells using a 4D-NUCLEOFECTOR™ system (Lonza). 4 days later, cells were harvested, and genomic DNA extracted using QUICKEXTRACT™ DNA Extraction Kit (Epicentre) according to the manufacturer's protocol. The sgRNA target site was amplified with specific primers (Table 18) and the amplicon sequenced by Sanger sequencing (MCLab, South San Francisco).
InDel quantification was performed on the sequences using the interference of CRISPR edits (ICE) and ICE-D online tools (ice.synthego.com) (FIG. 5A).

[8] = cells not exposed to 5-FOA, end of experiment, metabolite 250 μg/ml
[9] = UMPS knockout, metabolite 250 μg/ml

O=c1ccn([C@@H]2O[C@H](COP(=O)(O)O)[C@@H](O)[C@H]2O)c(=O)[nH]1 [UMP, Uridine monophosphate]
Alleles with frameshift InDels, Percent of alleles (without 5-FOA) (UMPS edited T cells; TIDE, day 8, metabolite 250 μg/ml): 46.1%
Alleles with InDels, Percent of alleles (without 5-FOA) (UMPS edited T cells; TIDE, metabolite 250 μg/ml): 71.1%
frameshift InDel frequency, Percent (UMPS edited T cells; [8]): 46.1%
overall InDel frequency, Percent (%) (UMPS edited T cells; [8]): 71.1%
Predicted viable cell counts, Cells with In-frame InDel (UMPS edited T cells; day 8, metabolite 250 μg/ml): 908000
Predicted viable cell counts, Cells with frameshift InDel (UMPS edited T cells; day 8, metabolite 250 μg/ml): 1670000
Predicted viable cell counts, Cells without InDel (UMPS edited T cells; day 8, metabolite 250 μg/ml): 1049070
Cells counts on Day 8 (UMPS knockout T cells [1]): 9978 and 6392
Cell density, Day 1 (Mock T cells [2]): 9.83E+05 cells per ml
Cell density, Day 2 (Mock T cells [2]): 2.01E+06 cells per ml
Cell density, Day 4 (Mock T cells [2]): 3.80E+06 cells per ml
Cell density, Day 6 (Mock T cells [2]): 4.18E+06 cells per ml
Cell density, Day 8 (Mock T cells [2]): 3.90E+06 cells per ml
Cell density, Day 1 (CCR5 knockout T cells): 1.02E+06 cells per ml
Cell density, Day 2 (CCR5 knockout T cells): 1.80E+06 cells per ml
Cell density, Day 4 (CCR5 knockout T cells): 3.32E+06 cells per ml
Cell density, Day 6 (CCR5 knockout T cells): 3.80E+06 cells per ml
Cell density, Day 8 (CCR5 knockout T cells): 4.03E+06 cells per ml
Cell density, Day 1 (UMPS knockout T cells [3]; [9]): 8.74E+05 cells per ml
Cell density, Day 2 (UMPS knockout T cells [3]; [9]): 1.86E+06 cells per ml
Cell density, Day 4 (UMPS knockout T cells [3]; [9]): 3.47E+06 cells per ml
Cell density, Day 6 (UMPS knockout T cells [3]; [9]): 3.88E+06 cells per ml
Cell density, Day 8 (UMPS knockout T cells [3]; [9]): 3.63E+06 cells per ml
Number of viable cells per ml, Day 1 (UMPS knockout T cells [3]; [9]): 874000 cells per ml
Number of viable cells per ml, Day 2 (UMPS knockout T cells [3]; [9]): 1860000 cells per ml
Number of viable cells per ml, Day 4 (UMPS knockout T cells [3]; [9]): 3470000 cells per ml
Number of viable cells per ml, Day 6 (UMPS knockout T cells [3]; [9]): 3880000 cells per ml
Number of viable cells per ml, Day 8 (UMPS knockout T cells [3]; [9]): 3630000 cells per ml
growth of UMPS edited culture (UMPS knockout T cells [3]; exogenous uracil source 250 μg/ml): rescued the growth of an UMPS edited culture to the same level as mock edited cells
cell proliferation after UMPS knockout (UMPS knockout T cells [3]; supplemented at 250 μg/ml): not impaired
Average of cells per volume unit (Mock T cells [4]; Mock, 4 days in 5-FOA without serum, with substrate): 24770.99 cells per volume unit
survival in 5-FOA compared to control (Mock T cells [4]; mock treated cells): improved the survival
survival in 5-FOA compared to control (UMPS-7 targeted T cells; UMPS targeted cells): improved the survival
Average of cells per volume unit (UMPS-7 targeted T cells; UMPS-7, 4 days in 5-FOA without serum, with substrate): 58299.26 cells per volume unit

CC(=O)OC[C@H]1O[C@@H](n2ccc(=O)[nH]c2=O)[C@H](OC(C)=O)[C@@H]1OC(C)=O [UTA, uridine triacetate]
increase of uridine serum levels ([5]; humans and mouse models, administration of prodrug): greater than 10 fold
tolerability ([5]; mice, food enriched with 8% (w/w) UTA): well tolerated
Teratoma weight, Weight [g] ([6]; NSG mice fed 8% (w/w) UTA food, 7 weeks after cell injection into hind leg, per mouse): 3.11 g and 0.033 g and 2.92 g and 1.54 g and 0.937 g
teratoma formation ([6]; mice fed with UTA, 7 weeks after cell injection): large teratomas
tumor burden of UMPS wild-type K562 cells [7]: increase in tumor burden
luminescence of UMPS^KO/KO K562-derived tumors (UMPS^KO/KO K562 cells): only increased in the mice fed with 8% UTA

UMPS-3: sgRNA for UMPS exon 1, target sequence + PAM CCCCGCAGATCGATGTAGAT GGG (SEQ ID NO: 4) (guide CCCCGCAGATCGATGTAGATGGG; target sequence plus PAM, further chemistry not given here; listed as Homo sapiens)
ICE InDels (%) (UMPS locus): 45%
ICE-D InDels (%) (UMPS locus): 43%

UMPS-6: sgRNA for UMPS exon 1, target sequence + PAM GGCGGTCGCTCGTGCAGCTT TGG (SEQ ID NO: 6) (guide GGCGGTCGCTCGTGCAGCTTTGG; listed as DNA, chemistry not given here; the letters are possibly those of the target site; listed as Homo sapiens)
ICE InDels (%) (UMPS locus): 12%
ICE-D InDels (%) (UMPS locus): 11%

B1: UMPS-7: sgRNA for UMPS exon 1, target sequence + PAM … TGG (SEQ ID NO: 5); gRNA SEQ ID NO: 1 (nucleic acid)
guide: GCCCCGCAGAUCGAUGUAGAGUUUUAGAGCUAGAAAUAGCAAGUUAAAAUAAGGCUAGUCCGUUAUCAACUUGAAAAAGUGGCACCGAGUCGGUGCUUUU
modifications: listed as RNA, chemistry not given here
ICE InDels (%) (UMPS locus): 39%
ICE-D InDels (%) (UMPS locus): 93%
type of edits created (UMPS locus; detectable by ICE-D but not by ICE or TIDE): high proportion of large (greater than 30 bp) deletions
frequency of InDels in initial screening (UMPS locus; initial sgRNA screening): highest frequency of InDels
